Drawing on publication PMC9961948, “Interaction of Amphipathic Peptide from Influenza Virus M1 Protein with Mitochondrial Cytochrome Oxidase” (International Journal of Molecular Sciences, 2023), this text covers Ki for one substance.

For the assay, the target named is T1, cytochrome c oxidase (CcO) purified from heart mitochondria (Bos taurus, UniProt P00396+P07471+P68530).
T1 construct: Cytochrome c oxidase was purified from the heart mitochondria of Bos taurus; from tissue; host or cells: bovine heart mitochondria
Put plainly: Cytochrome oxidase activity of solubilized mitochondrial CcO (oxygen uptake). Type of assay: biochemical. As to conditions: solubilized bovine heart CcO 20 nM; oxygen uptake, Clark electrode, 25 °C; BM 50 mM Hepes/Tris pH 7.6, 50 mM KCl, 1 mM (0.05%) DM; 5 mM ascorbate, 0.1 mM TMPD, 10 μM cytochrome c; fit by Equation (1); read-out: Inhibition of CcO, Solubilized, Ki(app).

For Ac-STKLWEMLVELGNMDKAVKLWRKLSR-NH2 [A4], the Ki came out at 0.0223 mM.
